In ChEMBL document CHEMBL4334456, “Moscatilin Ameliorates Tau Phosphorylation and Cognitive Deficits in Alzheimer's Disease Models” (J Nat Prod, 2019):
Active and inactive are the calls of the source. No cut-off for these calls is given here.

Columns and labels:
[1] = target: Glycogen synthase kinase-3 beta (Mus musculus) (UniProt Q9WV60); assay: Inhibition of GSK-3beta in mouse Neuro2a cells harboring with pCAX/FLAG-tagged APP and pRK5/EGFP-tagged Tau P301L mutant at 0.1 to 10 uM assessed as reduction in GSK-3beta phosphorylation at Tyr216 residues after 24 hrs by Western blot analysis; assay type: cell-based
[2] = target: Glycogen synthase kinase-3 beta (Homo sapiens) (UniProt P49841); assay: Inhibition of GSK-3beta in human SH-SY5Y cells assessed as reduction in GSK-3beta phosphorylation at Tyr216 residues at 0.1 to 5 uM pretreated for 24 hrs followed by OA addition and measured after 6 hrs by Western blot analysis; assay type: cell-based
N2a [3] = assay: Cytotoxicity against mouse Neuro2a cells assessed as reduction in cell viability after 12 hrs by MTT assay; assay type: cell-based
N2a [4] = assay: Cytotoxicity against mouse Neuro2a cells assessed as reduction in cell viability after 24 hrs by MTT assay; assay type: cell-based
SH-SY5Y [5] = assay: Cytotoxicity against human SH-SY5Y cells assessed as reduction in cell viability after 12 hrs by MTT assay; assay type: cell-based
SH-SY5Y [6] = assay: Cytotoxicity against human SH-SY5Y cells assessed as reduction in cell viability after 24 hrs by MTT assay; assay type: cell-based
[7] = target: Glycogen synthase kinase-3 beta (Mus musculus) (UniProt Q9WV60); assay: Inhibition of GSK-3beta in mouse Neuro2a cells harboring with pCAX/FLAG-tagged APP and pRK5/EGFP-tagged Tau P301L mutant assessed as reduction in tau phosphorylation at S396 residues after 12 to 24 hrs by Western blot analysis; assay type: cell-based
[8] = target: Glycogen synthase kinase-3 beta (Mus musculus) (UniProt Q9WV60); assay: Inhibition of GSK-3beta in mouse Neuro2a cells harboring with pCAX/FLAG-tagged APP and pRK5/EGFP-tagged Tau P301L mutant assessed as reduction in tau phosphorylation at S404 residues after 12 to 24 hrs by Western blot analysis; assay type: cell-based
[9] = target: Glycogen synthase kinase-3 beta (Homo sapiens) (UniProt P49841); assay: Inhibition of GSK-3beta in human SH-SY5Y cells harboring with pCAX/FLAG-tagged APP and pRK5/EGFP-tagged Tau P301L mutant assessed as reduction in tau phosphorylation at S396 residues after 12 to 24 hrs by Western blot analysis; assay type: cell-based
[10] = target: Glycogen synthase kinase-3 beta (Homo sapiens) (UniProt P49841); assay: Inhibition of GSK-3beta in human SH-SY5Y cells harboring with pCAX/FLAG-tagged APP and pRK5/EGFP-tagged Tau P301L mutant assessed as reduction in tau phosphorylation at S404 residues after 12 to 24 hrs by Western blot analysis; assay type: cell-based
N2a [11] = assay: Effect on total tau protein level in mouse Neuro2a cells harboring with pCAX/FLAG-tagged APP and pRK5/EGFP-tagged Tau P301L mutant at 0.1 to 10 uM after 12 to 24 hrs by Western blot analysis; assay type: ADME, cell-based
SH-SY5Y [12] = assay: Effect on total tau protein level in human SH-SY5Y cells harboring with pCAX/FLAG-tagged APP and pRK5/EGFP-tagged Tau P301L mutant at 0.1 to 10 uM after 12 to 24 hrs by Western blot analysis; assay type: ADME, cell-based
[13] = target: Glycogen synthase kinase-3 beta (Mus musculus) (UniProt Q9WV60); assay: Inhibition of GSK-3beta in mouse Neuro2a cells harboring with pCAX/FLAG-tagged APP and pRK5/EGFP-tagged Tau P301L mutant at 0.1 to 10 uM assessed as increase in GSK-3beta phosphorylation at Ser9 residues after 24 hrs by Western blot analysis; assay type: cell-based
[14] = target: Glycogen synthase kinase-3 beta (Mus musculus) (UniProt Q9WV60); assay: Inhibition of GSK3beta in mouse Neuro2a cells assessed as reduction in tau phosphorylation at S202/T205 residues at 0.1 to 5 uM pretreated for 12 to 24 hrs followed by OA addition and measured after 6 hrs by Western blot analysis; assay type: cell-based
[15] = target: Glycogen synthase kinase-3 beta (Mus musculus) (UniProt Q9WV60); assay: Inhibition of GSK3beta in mouse Neuro2a cells assessed as reduction in tau phosphorylation at S262 residues at 0.1 to 5 uM pretreated for 12 to 24 hrs followed by OA addition and measured after 6 hrs by Western blot analysis; assay type: cell-based
[16] = target: Glycogen synthase kinase-3 beta (Homo sapiens) (UniProt P49841); assay: Inhibition of GSK3beta in human SH-SY5Y cells assessed as reduction in tau phosphorylation at S202/T205 residues at 0.1 to 5 uM pretreated for 12 to 24 hrs followed by OA addition and measured after 6 hrs by Western blot analysis; assay type: cell-based
[17] = target: Glycogen synthase kinase-3 beta (Homo sapiens) (UniProt P49841); assay: Inhibition of GSK3beta in human SH-SY5Y cells assessed as reduction in tau phosphorylation at S262 residues at 0.1 to 5 uM pretreated for 12 to 24 hrs followed by OA addition and measured after 6 hrs by Western blot analysis; assay type: cell-based
N2a [18] = assay: Effect on total tau protein level in mouse Neuro2a cells at 0.1 to 5 uM pretreated for 12 to 24 hrs followed by OA addition and measured after 6 hrs by Western blot analysis; assay type: cell-based
SH-SY5Y [19] = assay: Effect on total tau protein level in human SH-SY5Y cells at 0.1 to 5 uM pretreated for 12 to 24 hrs followed by OA addition and measured after 6 hrs by Western blot analysis; assay type: ADME, cell-based
[20] = target: Glycogen synthase kinase-3 beta (Homo sapiens) (UniProt P49841); assay: Inhibition of GSK-3beta in human SH-SY5Y cells harboring with pCAX/FLAG-tagged APP and pRK5/EGFP-tagged Tau P301L mutant at 0.1 to 10 uM assessed as reduction in GSK-3beta phosphorylation at Tyr216 residues after 24 hrs by Western blot analysis; assay type: cell-based
[21] = target: Glycogen synthase kinase-3 beta (Homo sapiens) (UniProt P49841); assay: Inhibition of GSK-3beta in human SH-SY5Y cells harboring with pCAX/FLAG-tagged APP and pRK5/EGFP-tagged Tau P301L mutant at 0.1 to 10 uM assessed as increase in GSK-3beta phosphorylation at Ser9 residues after 24 hrs by Western blot analysis; assay type: cell-based
[22] = target: Glycogen synthase kinase-3 beta (Homo sapiens) (UniProt P49841); assay: Inhibition of GSK-3beta in human SH-SY5Y cells assessed as increase in GSK-3beta phosphorylation at Ser9 residues at 0.1 to 5 uM pretreated for 24 hrs followed by OA addition and measured after 6 hrs by Western blot analysis; assay type: cell-based
SH-SY5Y [23] = assay: Antioxidant activity in OA-induced human SH-SY5Y cells assessed as increase in MDA level at 0.1 to 1 uM pretreated for 12 hrs followed by OA addition and measured after 12 hrs; assay type: functional, cell-based
SH-SY5Y [24] = assay: Antioxidant activity in OA-induced human SH-SY5Y cells assessed as decrease in GSH level at 0.1 to 1 uM pretreated for 12 hrs followed by OA addition and measured after 12 hrs; assay type: functional, cell-based
[25] = target: c-Jun N-terminal kinase, JNK (Homo sapiens) (UniProt P45983+P53779+P45984); assay: Inhibition of JNK phosphorylation in OA-induced human SH-SY5Y cells pretreated for 24 hrs followed by OA addition and measured after 6 hrs by Western blot analysis; assay type: cell-based
SH-SY5Y [26] = assay: Inhibition of ERK phosphorylation in OA-induced human SH-SY5Y cells pretreated for 24 hrs followed by OA addition and measured after 6 hrs by Western blot analysis; assay type: cell-based
[27] = target: MAP kinase p38 (Homo sapiens) (UniProt O15264+Q15759+Q16539+P53778); assay: Inhibition of p38 phosphorylation in OA-induced human SH-SY5Y cells pretreated for 24 hrs followed by OA addition and measured after 6 hrs by Western blot analysis; assay type: cell-based
SH-SY5Y [28] = assay: Inhibition of tau aggregation in OA-induced human SH-SY5Y cells at 0.1 to 5 uM pretreated for 24 hrs followed by OA addition and measured after 6 hrs by Western blot analysis; assay type: functional, cell-based
SH-SY5Y [29] = assay: Effect on cell cycle arrest in OA-induced human SH-SY5Y cells assessed as accumulation at sub-G1 phase at 0.1 uM pretreated for 6 hrs followed by OA addition and measured after 16 hrs […] (reference value: 32.28%); assay type: functional
Mus musculus [30] = assay: Anti-alzhemeric activity in scopolamine-induced ICR mouse assessed as increase in swimming distance at 25 to 100 mg/kg, ip for 2 weeks followed by scopolamine treatment and measured after 90 mins by Morris water maze test; assay type: functional, organism-based
Mus musculus [31] = assay: Anti-alzhemeric activity in scopolamine-induced ICR mouse assessed as increase in time spent in the target quadrant at 25 to 100 mg/kg, ip for 2 weeks followed by scopolamine treatment and measured after 90 mins by Morris water maze test; assay type: functional, organism-based
Mus musculus [32] = assay: Anti-alzhemeric activity in scopolamine-induced ICR mouse assessed as increase in swimming speed at 25 to 100 mg/kg, ip for 2 weeks followed by scopolamine treatment and measured after 90 mins by Morris water maze test; assay type: functional, organism-based
Mus musculus [33] = assay: Reversal of scopolamine-induced spatial memory impairment in ICR mouse assessed as decrease in time spent on […] at 25 to 100 mg/kg, ip for 2 weeks followed by scopolamine treatment and measured after 90 mins by Morris water maze test; assay type: functional, organism-based
Mus musculus [34] = assay: Anti-alzhemeric activity in scopolamine-induced ICR mouse assessed as inhibition of tau phosphorylation at S202/T205 residues in brain at 25 to 100 mg/kg, ip for 2 weeks followed by scopolamine treatment by Western blot analysis; assay type: functional, organism-based
Mus musculus [35] = assay: Anti-alzhemeric activity in scopolamine-induced ICR mouse assessed as inhibition of tau phosphorylation at Ser262 residues in brain at 25 to 100 mg/kg, ip for 2 weeks followed by scopolamine treatment by Western blot analysis; assay type: functional, organism-based
Mus musculus [36] = assay: Anti-alzhemeric activity in scopolamine-induced ICR mouse assessed as inhibition of tau phosphorylation at Ser396 residues in brain at 25 to 100 mg/kg, ip for 2 weeks followed by scopolamine treatment by Western blot analysis; assay type: functional, organism-based
Mus musculus [37] = assay: Anti-alzhemeric activity in scopolamine-induced ICR mouse assessed as increase in GSK-3beta phosphorylation Ser9 residues in brain at 25 to 100 mg/kg, ip for 2 weeks followed by scopolamine treatment by Western blot analysis; assay type: functional, organism-based
Mus musculus [38] = assay: Anti-alzhemeric activity in scopolamine-induced ICR mouse assessed as reduction in tau phosphorylation at S202/T205 residues in hippocampal CA1 region at 25 to 100 mg/kg, ip for 2 weeks followed by scopolamine treatment by immunohistochemistry-based analysis; assay type: functional, organism-based
Mus musculus [39] = assay: Anti-alzhemeric activity in scopolamine-induced ICR mouse assessed as increase in GSK-3beta phosphorylation Ser9 residues in hippocampal CA1 region at 25 to 100 mg/kg, ip for 2 weeks followed by scopolamine treatment by immunohistochemistry-based analysis; assay type: functional, organism-based
[40] = Toxicity in ICR mouse assessed as effect on body weight at 25 to 100 mg/kg, ip for 2 weeks; assay type: organism-based; settings: in vivo, 336 h
[41] = Toxicity in ICR mouse assessed as effect on body weight at 1 mg/kg, ip for 2 weeks; assay type: organism-based; settings: in vivo, 336 h

Chain of Glycogen synthase kinase-3 beta (Homo sapiens) (P49841 whole entry, looked up): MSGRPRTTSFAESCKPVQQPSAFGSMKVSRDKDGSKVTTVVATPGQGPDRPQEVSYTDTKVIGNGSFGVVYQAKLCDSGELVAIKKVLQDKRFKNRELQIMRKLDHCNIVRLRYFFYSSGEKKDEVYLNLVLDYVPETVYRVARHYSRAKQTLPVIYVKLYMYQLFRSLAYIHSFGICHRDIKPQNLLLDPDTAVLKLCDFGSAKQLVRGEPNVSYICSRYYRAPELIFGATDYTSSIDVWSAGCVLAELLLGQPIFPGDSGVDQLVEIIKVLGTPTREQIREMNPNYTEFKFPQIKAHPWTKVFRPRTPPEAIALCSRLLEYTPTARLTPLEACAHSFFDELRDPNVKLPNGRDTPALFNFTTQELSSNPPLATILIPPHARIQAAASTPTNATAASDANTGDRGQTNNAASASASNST
Chain of Glycogen synthase kinase-3 beta (Mus musculus) (Q9WV60 whole entry, looked up): as the sequence (P49841 whole entry, looked up) above, with T390P, T392A, A400T, T402A counted along it

COc1cc(CCc2cc(OC)c(O)c(OC)c2)ccc1O [MOSCATILIN]
inhibition [1]: Active | inhibition [2]: Active | IC50 (N2a [3]): > 20 µM | IC50 (N2a [4]): > 20 µM | IC50 (SH-SY5Y [5]): > 20 µM | IC50 (SH-SY5Y [6]): > 20 µM | inhibition [7]: Dose-dependent effect | inhibition [8]: Dose-dependent effect | inhibition [9]: Dose-dependent effect | inhibition [10]: Dose-dependent effect | Activity (N2a [11]): Non-Toxic | Activity (SH-SY5Y [12]): Non-Toxic | inhibition [13]: Active | inhibition [14]: Active | inhibition [15]: Active | inhibition [16]: Active | inhibition [17]: Active | Activity (N2a [18]): Non-Toxic | Activity (SH-SY5Y [19]): Non-Toxic | inhibition [20]: Active | inhibition [21]: Active | inhibition [22]: Active | Activity (SH-SY5Y [23]): Active | Activity (SH-SY5Y [24]): Active | inhibition [25]: Dose-dependent effect | inhibition (SH-SY5Y [26]): Dose-dependent effect | inhibition [27]: Dose-dependent effect | inhibition (SH-SY5Y [28]): Active | Activity (SH-SY5Y [29]): 20.81% | Activity (Mus musculus [30]): Active | Activity (Mus musculus [31]): Active | Activity (Mus musculus [32]): inactive | Activity (Mus musculus [33]): Active | Activity (Mus musculus [34]): Active | Activity (Mus musculus [35]): Active | Activity (Mus musculus [36]): Active | Activity (Mus musculus [37]): Active | Activity (Mus musculus [38]): Active | Activity (Mus musculus [39]): Active | Activity [40]: Non-Toxic | Activity [41]: Non-Toxic
